Assay results as given in paper PMC9127750, “Structure-based design of CDC42 effector interaction inhibitors for the treatment of cancer” (Cell reports, 2022).

Experiments:
Test in all cases: cells
U-937 = conditions: Homo sapiens, U-937, read-out: IC50 ARN22089
Protocol: (§1) Cancer cell line viability assay was performed using a CellTiterGlo assay. Cells were cultured in their appropriate media and seeded in white multi-well plates. For the assays, cells were incubated with compound at 37°C overnight, and a CellTiterGlo assay was performed to quantify viable cells.

NCI-H838 = conditions: Homo sapiens, NCI-H838, read-out: IC50 ARN22089
Protocol: as §1

NCI-H441 = conditions: Homo sapiens, NCI-H441, read-out: IC50 ARN22089
Protocol: as §1

BT-20 = conditions: Homo sapiens, BT-20, read-out: IC50 ARN22089
Protocol: as §1

SK-N-MC = conditions: Homo sapiens, read-out: IC50 ARN22089
Protocol: as §1

NCI-H292 = conditions: Homo sapiens, NCI-H292, read-out: IC50 ARN22089
Protocol: as §1

K562 = conditions: Homo sapiens, K562, read-out: IC50 ARN22089
Protocol: as §1

MiaPaCA2 = conditions: Homo sapiens, MIA PaCa-2, read-out: IC50 ARN22089
Protocol: as §1

SK-N-SH = conditions: Homo sapiens, read-out: IC50 ARN22089
Protocol: as §1

COR-L279 = conditions: Homo sapiens, COR-L279, read-out: IC50 ARN22089
Protocol: as §1

RKO = conditions: Homo sapiens, read-out: IC50 ARN22089
Protocol: as §1

NCI-H2110 = conditions: NCI-H2110, read-out: IC50 ARN22089
Protocol: as §1

M07e = conditions: M-07e, read-out: IC50 ARN22089
Protocol: as §1

NCI-H2286 = conditions: Homo sapiens, NCI-H2286, read-out: IC50 ARN22089
Protocol: as §1

DLD-1 = conditions: Homo sapiens, DLD-1, read-out: IC50 ARN22089
Protocol: as §1

NCI-H1437 = conditions: Homo sapiens, NCI-H1437, read-out: IC50 ARN22089
Protocol: as §1

HL-60 = conditions: Homo sapiens, HL-60, read-out: IC50 ARN22089
Protocol: as §1

MDAMB435 = conditions: Homo sapiens, MDA-MB-435, read-out: IC50 ARN22089
Protocol: as §1

LOU-NH91 = conditions: LOU-NH91, read-out: IC50 ARN22089
Protocol: as §1

NCI-H1048 = conditions: Homo sapiens, NCI-H1048, read-out: IC50 ARN22089
Protocol: as §1

SW948 = conditions: Homo sapiens, SW948, read-out: IC50 ARN22089
Protocol: as §1

NCI-H1563 = conditions: Homo sapiens, NCI-H1563, read-out: IC50 ARN22089
Protocol: as §1

[1] = test system: WM3248, SKMel3, A375, SW480, and SKM28; conditions: WM3248, SKMel3, A375, and SW480
Protocol: as §1

U2OS = conditions: Homo sapiens, read-out: IC50 ARN22089
Protocol: as §1

HEC-1-B = conditions: Homo sapiens, read-out: IC50 ARN22089
Protocol: as §1

RERF-LC-MS = conditions: read-out: IC50 ARN22089
Protocol: as §1

HCT-15 = conditions: Homo sapiens, HCT-15, read-out: IC50 ARN22089
Protocol: as §1

COV434 = conditions: COV434, read-out: IC50 ARN22089
Protocol: as §1

KG-1 = conditions: Homo sapiens, KG-1, read-out: IC50 ARN22089
Protocol: as §1

HT-29 = conditions: Homo sapiens, HT-29, read-out: IC50 ARN22089
Protocol: as §1

LnCap = conditions: Homo sapiens, read-out: IC50 ARN22089
Protocol: as §1

SKMel3 = conditions: Homo sapiens, SK-MEL3, read-out: IC50 Skmel3
Protocol: as §1

H1299 = conditions: Homo sapiens, NCI-H1299, read-out: IC50 ARN22089
Protocol: as §1

Caki-2 = conditions: Homo sapiens, CAKI-2, read-out: IC50 ARN22089
Protocol: as §1

SW620 = conditions: Homo sapiens, SW-620, read-out: IC50 ARN22089
Protocol: as §1

NCI-H1703 = conditions: Homo sapiens, NCI-H1703, read-out: IC50 ARN22089
Protocol: as §1

U87MG = conditions: Homo sapiens, U-87 MG, read-out: IC50 ARN22089
Protocol: as §1

Hutu 80 = conditions: Homo sapiens, HuTu80, read-out: IC50 ARN22089
Protocol: as §1

T84 = conditions: Homo sapiens, T84, read-out: IC50 ARN22089
Protocol: as §1

SK-MEL-3 = conditions: Homo sapiens, SK-MEL3, read-out: IC50 ARN22089
Protocol: as §1

OCI-AML5 = conditions: Homo sapiens, OCI-AML-5, read-out: IC50 ARN22089
Protocol: as §1

Compound: CN(C)c1cccc(Nc2cc(-c3ccccc3)nc(C3CCNCC3)n2)c1 [ARN22089, N1,N1-dimethyl-N3-(6-phenyl-2-(piperidin-4-yl)pyrimidin-4-yl)benzene-1,3-diamine]
- IC50 (U-937): 3.5 µM
- IC50 (NCI-H838): 12 µM
- IC50 (NCI-H441): 12 µM
- IC50 (BT-20): 29 µM
- IC50 (SK-N-MC): 4.7 µM
- IC50 (NCI-H292): 12 µM
- IC50 (K562): 9 µM
- IC50 (MiaPaCA2): 8.3 µM
- IC50 (SK-N-SH): 8.1 µM
- IC50 (COR-L279): 12 µM
- IC50 (RKO): 3.9 µM
- IC50 (NCI-H2110): 21 µM
- IC50 (M07e): 11 µM
- IC50 (NCI-H2286): 14 µM
- IC50 (DLD-1): 5 µM
- IC50 (NCI-H1437): 16 µM
- IC50 (HL-60): 8.1 µM
- IC50 (MDAMB435): 10 µM
- IC50 (LOU-NH91): 29 µM
- IC50 (NCI-H1048): 22 µM
- IC50 (SW948): 8.3 µM
- IC50 (NCI-H1563): 16 µM
- IC50 activity against the more sensitive cell lines [1]: single-digit micromolar
- IC50 (U2OS): 11 µM
- IC50 (HEC-1-B): 18 µM
- IC50 (RERF-LC-MS): 12 µM
- IC50 (HCT-15): 8.7 µM
- IC50 (COV434): 5.5 µM
- IC50 (KG-1): 14 µM
- IC50 (HT-29): 3.5 µM
- IC50 (LnCap): 14 µM
- IC50 (SKMel3): 4.26 µM
- IC50 (H1299): 11 µM
- IC50 (Caki-2): 9.9 µM
- IC50 (SW620): 5.9 µM
- IC50 (NCI-H1703): 37 µM
- IC50 (U87MG): 6.1 µM
- IC50 (Hutu 80): 12 µM
- IC50 (T84): 5.3 µM
- IC50 (SK-MEL-3): 3.3 µM
- IC50 (OCI-AML5): 15 µM
